PMC9505425, “Targeting of the Mitochondrial TET1 Protein by Pyrrolo[3,2-b]pyrrole Chelators” (International Journal of Molecular Sciences, 2022)
Where “and” joins values, the source holds several entries; their conditions need not be identical. Equal values may be shown once.

Experiments:
Caov-3 cells = assay: MTT cytotoxicity assay, Caov-3; assay type: cell-based, human
Procedure, shortened: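 Caov-3 ovarian adenocarcinoma cells, grown for 24 h after plating, were exposed for 48 h to compound at 0.1–20 μM with at most 1% DMSO. Viability was measured by MTT reduction (2 h, A570) relative to untreated cells. IC50 was the concentration inhibiting 50% of cell growth.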

[1] = MTT cytotoxicity assay, HF-P4; assay type: cell-based, human; conditions: human, HF-P4 normal human dermal fibroblasts, repeats, read-out: Cell viability %
Procedure, shortened: (§1)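 Cells seeded at 1.0 × 10^5 per well, grown 24 h, then exposed 48 h to compounds at 0.1–20 μM (DMSO ≤1%). MTT added for 2 h, formazan dissolved in DMSO, absorbance read at 570 nm. IC50 calculated relative to untreated cells (100%).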

HF-P4 cells = assay: MTT cytotoxicity assay, HF-P4; assay type: cell-based, human; conditions: 48 h; for Cell viability %: repeats
Procedure, shortened: as §1

BT-20 cells = assay: MTT cytotoxicity assay, BT-20; assay type: cell-based, human
Procedure, shortened: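 BT-20 human breast cells seeded 24 h, then treated 48 h with compound at 0.1–20 μM (DMSO below 1%). Viability by MTT (2 h, formazan in DMSO, A570) against untreated cells as 100%; IC50 from four replicates per test, three independent repeats.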

Compound: Cc1ccc(-n2c(-c3ccc(C(=O)N/N=C/c4ccc(O)cc4O)cc3)cc3c2cc(-c2ccc(C(=O)N/N=C/c4ccc(O)cc4O)cc2)n3-c2ccc(C)cc2)cc1 [Compound 4]
- Cell viability % (Caov-3 cells; Caov-3, 100 nM, 48 h, repeats, 0.1 µM): 84.95% and 82.17%
- Cell viability % (Caov-3 cells; Caov-3, 500 nM, 48 h, repeats, 0.5 µM): 102.391% and 108.5681%
- Cell viability % (Caov-3 cells; Caov-3, 750 nM, 48 h, repeats, 0.75 µM): 102.8833% and 94.08%
- Cell viability % (Caov-3 cells; Caov-3, 1 uM, 48 h, repeats, 1 µM): 98.73% and 92.87%
- Cell viability % (Caov-3 cells; Caov-3, 2.5 uM, 48 h, repeats, 2.5 µM): 74.65% and 110.1266% and 69.7%
- Cell viability % (Caov-3 cells; Caov-3, 5 uM, 48 h, repeats, 5 µM): 50.71% and 80.94% and 55.26%
- Cell viability % (Caov-3 cells; Caov-3, 7.5 uM, 48 h, repeats, 7.5 µM): 53.66% and 54.17%
- Cell viability % (Caov-3 cells; Caov-3, 10 uM, 48 h, repeats, 10 µM): 41.07% and 42.6107%
- Cell viability % (Caov-3 cells; Caov-3, 15 uM, 48 h, repeats, 15 µM): 17.58% and 17.6%
- Cell viability % (Caov-3 cells; Caov-3, 20 uM, 48 h, repeats, 20 µM): 14.91% and 14.49%
- viability at 0.1 µM (Caov-3 cells; Homo sapiens, Caov-3, 48 h, Caov-3, 100 nM, repeats, read-out: Cell viability %): 68.6%
- viability at 0.5 µM (Caov-3 cells; Homo sapiens, Caov-3, 48 h, Caov-3, 500 nM, repeats, read-out: Cell viability %): 104%
- viability at 0.75 µM (Caov-3 cells; Homo sapiens, Caov-3, 48 h, Caov-3, 750 nM, repeats, read-out: Cell viability %): 92.8%
- viability at 1 µM (Caov-3 cells; Homo sapiens, Caov-3, 48 h, Caov-3, 1 uM, repeats, read-out: Cell viability %): 101%
- viability at 7.5 µM (Caov-3 cells; Homo sapiens, Caov-3, 48 h, Caov-3, 7.5 uM, repeats, read-out: Cell viability %): 53.1%
- viability at 10 µM (Caov-3 cells; Homo sapiens, Caov-3, 48 h, Caov-3, 10 uM, repeats, read-out: Cell viability %): 42.9%
- viability at 15 µM (Caov-3 cells; Homo sapiens, Caov-3, 48 h, Caov-3, 15 uM, repeats, read-out: Cell viability %): 19.5%
- viability at 20 µM (Caov-3 cells; Homo sapiens, Caov-3, 48 h, Caov-3, 20 uM, repeats, read-out: Cell viability %): 14.3%
- IC50 (Caov-3 cells; Homo sapiens, Caov-3, MTT, 48 h): 9.13 µM
- melting point: 328 to 329 °C
- viability at 48 h, 0.1 µM ([1]; HF-P4, 100 nM): 102%
- viability at 48 h, 0.5 µM ([1]; HF-P4, 500 nM): 94.9%
- viability at 48 h, 0.75 µM ([1]; HF-P4, 750 nM): 84.8%
- viability at 48 h, 1 µM ([1]; HF-P4, 1 uM): 86%
- viability at 48 h, 2.5 µM ([1]; HF-P4, 2.5 uM): 74.5%
- viability at 48 h, 5 µM ([1]; HF-P4, 5 uM): 74.9%
- viability at 48 h, 7.5 µM ([1]; HF-P4, 7.5 uM): 66.9%
- viability at 48 h, 10 µM ([1]; HF-P4, 10 uM): 59.9%
- viability at 48 h, 15 µM ([1]; HF-P4, 15 uM): 45.1%
- viability at 48 h, 20 µM ([1]; HF-P4, 20 uM): 36.4%
- Cell viability % (HF-P4 cells; HF-P4, 100 nM, 0.1 µM): 100.6236% and 114.7117%
- Cell viability % (HF-P4 cells; HF-P4, 500 nM, 0.5 µM): 87.47% and 94.87%
- Cell viability % (HF-P4 cells; HF-P4, 750 nM, 0.75 µM): 85.1% and 92.38%
- Cell viability % (HF-P4 cells; HF-P4, 1 uM, 1 µM): 81.67% and 86.71%
- Cell viability % (HF-P4 cells; HF-P4, 2.5 uM, 2.5 µM): 86.63% and 76.23%
- Cell viability % (HF-P4 cells; HF-P4, 5 uM, 5 µM): 73.34% and 61.32%
- Cell viability % (HF-P4 cells; HF-P4, 7.5 uM, 7.5 µM): 70.27% and 58.24%
- Cell viability % (HF-P4 cells; HF-P4, 10 uM, 10 µM): 62.49% and 65.68%
- Cell viability % (HF-P4 cells; HF-P4, 15 uM, 15 µM): 53.94% and 54.86%
- Cell viability % (HF-P4 cells; HF-P4, 20 uM, 20 µM): 38.68% and 44.63%
- IC50 (HF-P4 cells; Homo sapiens, MTT): 13.1 µM
- Cell viability % (BT-20 cells; BT-20, 100 nM, 48 h, repeats, 0.1 µM): 89.05% and 76.97% and 98.11%
- Cell viability % (BT-20 cells; BT-20, 500 nM, 48 h, repeats, 0.5 µM): 90.8088% and 82.57%
- Cell viability % (BT-20 cells; BT-20, 750 nM, 48 h, repeats, 0.75 µM): 103.1798% and 88.69% and 109.7163%
- Cell viability % (BT-20 cells; BT-20, 1 uM, 48 h, repeats, 1 µM): 100.5483% and 88.51%
- Cell viability % (BT-20 cells; BT-20, 2.5 uM, 48 h, repeats, 2.5 µM): 82.74% and 106.2024% and 110.5893%
- Cell viability % (BT-20 cells; BT-20, 5 uM, 48 h, repeats, 5 µM): 77.52% and 61.62%
- Cell viability % (BT-20 cells; BT-20, 7.5 uM, 48 h, repeats, 7.5 µM): 44.3% and 44.18%
- Cell viability % (BT-20 cells; BT-20, 10 uM, 48 h, repeats, 10 µM): 18.92% and 21.27%
- Cell viability % (BT-20 cells; BT-20, 15 uM, 48 h, repeats, 15 µM): 8.454% and 10.83%
- Cell viability % (BT-20 cells; BT-20, 20 uM, 48 h, repeats, 20 µM): 9.864% and 12.92%
- viability at 0.5 µM (BT-20 cells; Homo sapiens, BT-20, 48 h, BT-20, 500 nM, repeats, read-out: Cell viability %): 77.8%
- viability at 1 µM (BT-20 cells; Homo sapiens, BT-20, 48 h, BT-20, 1 uM, repeats, read-out: Cell viability %): 96.3%
- viability at 5 µM (BT-20 cells; Homo sapiens, BT-20, 48 h, BT-20, 5 uM, repeats, read-out: Cell viability %): 73.5%
- viability at 7.5 µM (BT-20 cells; Homo sapiens, BT-20, 48 h, BT-20, 7.5 uM, repeats, read-out: Cell viability %): 37.5%
- viability at 10 µM (BT-20 cells; Homo sapiens, BT-20, 48 h, BT-20, 10 uM, repeats, read-out: Cell viability %): 20.1%
- viability at 15 µM (BT-20 cells; Homo sapiens, BT-20, 48 h, BT-20, 15 uM, repeats, read-out: Cell viability %): 8.06%
- viability at 20 µM (BT-20 cells; Homo sapiens, BT-20, 48 h, BT-20, 20 uM, repeats, read-out: Cell viability %): 8.37%
- IC50 (BT-20 cells; Homo sapiens, BT-20, MTT, 48 h): 6.22 µM
